Data on 76 compounds can be found in patent publication US20070037785A1, “Novel dipeptidyl peptidase IV inhibitors used for functionally influencing different cells and treating immunological, infammatory, neuronal, and other diseases” (priority 2003, published 2007).

SMILES strings stand for the structures.

The first assay deals with dipeptidyl peptidase IV (Homo sapiens, UniProt P27487). Briefly: biochemical. The note with it: values marked with "*" are ID50 values; read-out: IC50DPIV, values marked with "*" = ID50.
Sequence of dipeptidyl peptidase IV (P27487 whole entry, species assumed): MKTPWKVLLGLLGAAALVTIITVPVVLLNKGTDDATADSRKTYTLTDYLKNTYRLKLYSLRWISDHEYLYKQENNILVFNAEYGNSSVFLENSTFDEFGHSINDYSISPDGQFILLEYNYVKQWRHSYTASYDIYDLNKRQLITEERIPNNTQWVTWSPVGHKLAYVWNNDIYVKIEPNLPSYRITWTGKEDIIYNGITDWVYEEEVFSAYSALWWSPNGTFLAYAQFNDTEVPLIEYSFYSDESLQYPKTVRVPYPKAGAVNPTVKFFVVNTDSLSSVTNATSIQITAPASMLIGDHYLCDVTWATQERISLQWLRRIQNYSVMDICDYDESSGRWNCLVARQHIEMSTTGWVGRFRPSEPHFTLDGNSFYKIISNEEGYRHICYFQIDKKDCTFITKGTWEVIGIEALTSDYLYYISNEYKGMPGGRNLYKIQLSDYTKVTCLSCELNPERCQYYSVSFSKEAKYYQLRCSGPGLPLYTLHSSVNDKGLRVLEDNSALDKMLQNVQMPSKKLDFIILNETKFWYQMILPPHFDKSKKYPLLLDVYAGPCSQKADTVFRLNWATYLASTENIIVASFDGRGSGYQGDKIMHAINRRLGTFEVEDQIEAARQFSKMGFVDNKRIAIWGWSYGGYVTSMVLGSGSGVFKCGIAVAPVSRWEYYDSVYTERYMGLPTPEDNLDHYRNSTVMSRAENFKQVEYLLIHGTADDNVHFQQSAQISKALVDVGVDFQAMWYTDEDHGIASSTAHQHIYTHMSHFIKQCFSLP
With `O=C(Cn1c2ccccc2c(=O)c2ccccc21)N/N=C/c1ccc(O)c(O)c1` [D10.092], the IC50 was 63.5 µM.
Turning to `Cc1cccc(NCC(=O)N/N=C/c2cc(Br)c(O)c(O)c2Br)c1` [D10.094], the IC50 came to 65.5 µM.
Take `CC(C)(C)c1cc2oc3c(c2c(/C=N/NC(=O)c2ccc(O)cc2O)c1O)CCCC3` [D10.097]: the IC50 was found to be 74.7 µM.
Consider `COc1cc(/C=N/NC(=O)c2ccc(NC(=O)c3ccccc3C)cc2)cc(OC)c1OC` [D10.100], for which the IC50 is 91 µM.
On to `O=C(CNC(=O)c1cccc(F)c1)N/N=C/c1cc(Br)cc(Br)c1OC(=O)c1cccc(Br)c1` [D10.102], for which the IC50 was 91.9 µM.
Same read-out and setting: the value for `Cc1ccc(OCC(=O)N/N=C/c2c(Br)cc(Br)c(O)c2Br)c(Br)c1` [D10.106] was 101 µM; that for `CCOc1cccc(/C=N\NC(=O)c2ccco2)c1O` [D10.107] was 103 µM; that for `O=C(N/N=C/c1cc(Br)cc(Br)c1OC(=O)c1ccccc1)/C(=C/c1cccs1)NC(=O)c1ccccc1` [D10.110] was 114 µM.
With `O=C(N/N=C/c1ccc(O)c(O)c1)c1cccc([N+](=O)[O-])c1` [D10.111], the IC50 stood at 116 µM.
Turning to `O=C(COc1ccccc1C(=O)N/N=C\c1ccc(O)c(O)c1)N/N=C/c1ccc(O)c(O)c1` [D10.113], the IC50 stood at 127 µM.
`CCn1c2ccccc2c2cc(/C=N/NC(=O)c3ccc([N+](=O)[O-])cc3)ccc21` [D10.116]: the IC50 worked out at 165 µM.
Still for that read-out and setting: the result for `COc1ccc(/C=C(\NC(=O)c2ccccc2)C(=O)N/N=C/c2ccc(OC)c(COc3ccc(C(=O)OCC(C)C)cc3)c2)cc1` [D10.117] reads 166 µM; that for `Cc1cc(Cl)ccc1OC(C)C(=O)N/N=C1/C(=O)Nc2ccc([N+](=O)[O-])cc21` (stereo not shown) [D10.118], 166 µM; that for `O=C(COc1c(O)cc(Br)cc1Br)N/N=C/c1ccc(O)c(O)c1` [D10.119], 177 µM.
Still for that read-out and setting: the value for `COc1ccc(OCC(=O)N/N=C/c2ccc(OC)c(Br)c2)c(Br)c1` [D10.120] was 197 µM; that for `O=C(CCCOc1ccc(Cl)cc1Cl)N/N=C1/C(=O)Nc2ccc(Br)cc21` [D10.121] was 204 µM; that for `C/C(=N\NC(=O)CNC(=O)c1ccc(Cl)cc1)c1ccc2ccccc2c1` [D10.122] was 208 µM.
For `CCOc1cc(/C=N/NC(=O)c2ccccc2)ccc1O` [D10.123], the IC50 is 218 µM.
The same measure, in the same setting: the result for `CCCN(CCC)c1ccc(/C=N/NC(=O)COc2ccc(C)cc2[N+](=O)[O-])cc1` [D10.124] reads 225 µM; that for `Cc1ccc(C)c(NCC(=O)N/N=C\c2cc([N+](=O)[O-])ccc2N2CCOCC2)c1` [D10.125], 233 µM.
The same measure, in the same setting: the value for `O=C(N/N=C/c1cccc([N+](=O)[O-])c1)c1ccc(NCc2ccccc2)cc1` [D10.126] was 234 µM; that for `COc1cc(/C=N/NC(=O)c2ccccc2[N+](=O)[O-])cc(OC)c1OC` [D10.128] was 241 µM.
Same read-out and setting: the result for `COC(=O)c1ccc(/C=N/NC(=O)c2cc(C34CC5CC(CC(C5)C3)C4)n[nH]2)cc1` [D10.129] reads 243 µM.
For the compound `O=C(N/N=C/c1ccccc1O)c1cc(-c2ccc3ccccc3c2)n[nH]1` [D10.130], the IC50 was determined as 255 µM.
In the case of `Cc1ccc(OCC(=O)N/N=C/c2ccccc2OC(=O)c2ccc([N+](=O)[O-])cc2)cc1` [D10.131], the IC50 worked out at 257 µM.
On the same count and under the same terms, the result for `CCOc1cc(/C=N/NC(=O)c2nnn(-c3nonc3N)c2-c2ccccc2)ccc1OC` [D10.132] reads 271 µM.
On the same count and under the same terms, the result for `O=C(N/N=C/c1cc(Br)ccc1OC(=O)c1ccc([N+](=O)[O-])cc1)/C(=C\c1ccc2c(c1)OCO2)NC(=O)c1ccccc1` [D10.133] reads 272 µM; that for `COc1ccc(/C=N/NC(=O)C(=O)Nc2ccc(Cl)cc2C)c(OC)c1` [D10.134], 275 µM.
Still for that read-out and setting: the result for `Nc1nonc1-n1nnc(C(=O)N/N=C/c2ccccc2Br)c1-c1ccc([N+](=O)[O-])cc1` [D10.135] reads 314 µM; that for `Cc1cc(C(=O)N/N=C\c2c[nH]c3ccccc23)c(C)o1` [D10.136], 340 µM; that for `O=C(NNC(=O)c1ccc([N+](=O)[O-])cc1)c1ccc(N2C(=O)c3ccc(C(=O)NNC(=O)c4ccc([N+](=O)[O-])cc4)cc3C2=O)cc1` [D10.137], 402 µM.
Consider `CCN(CC)c1ccc(/C=C(/NC(=O)c2ccccc2)C(=O)N/N=C/c2ccc(-c3ccc([N+](=O)[O-])cc3)o2)cc1` [D10.138], for which the IC50 worked out at 418 µM.
For `COc1ccc(S(=O)(=O)N(CC(=O)N/N=C/c2ccc(C(C)C)cc2)c2cc(Cl)ccc2OC)cc1OC` [D10.139], the IC50 is 432 µM.
Take `COc1cccc(/C=N/NC(=O)c2ccc(OCc3cccc(Br)c3)cc2)c1OC` [D10.140]: the IC50 turned out to be 458 µM.
The same measure, in the same setting: the value for `CSc1ccc(/C=N/NC(=O)c2cccs2)cc1` [D10.141] was 498 µM.
Same read-out and setting: the result for `N/C(=N/[N+](=O)[O-])N/N=C/c1ccc(-c2cccc(Cl)c2Cl)o1` [D10.142] reads 609 µM.
Still for that read-out and setting: the result for `O=C(N/N=C/c1cccc(OC(=O)c2ccccc2Cl)c1)/C(=C\c1ccc2c(c1)OCO2)NC(=O)c1ccccc1` [D10.143] reads 656 µM; that for `Cc1ccccc1NC(=O)C(=O)N/N=C/c1cccc(Cl)c1` [D10.144], 775 µM.
As for `O=C(Nc1cccc(/N=C/c2cc(/N=N\c3ccccc3Cl)ccc2O)c1)c1ccco1` [D11.001], the IC50 was 2.5 µM.

The assay is the same for the next values; noted with them: values without "*" = IC-50; read-out: IC50DPIV.
Turning to `COc1ccc(Br)cc1/C=N/NC(=O)COc1ccc(C)cc1[N+](=O)[O-]` [D10.068], the IC50 worked out at 45.6 µM.
With `O=C(N/N=C/c1cc([N+](=O)[O-])cc([N+](=O)[O-])c1O)/C(=C/c1ccc([N+](=O)[O-])cc1)NC(=O)c1ccccc1` [D10.069], the IC50 amounted to 45.7 µM.
With `COc1cc(/C=N/NC(=O)/C(=C/c2ccc(N(C)C)cc2)NC(=O)c2ccccc2)cc(Br)c1O` [D10.070], the IC50 turned out to be 46.2 µM.
Turning to `Cc1cccc(C(=O)N/N=C/c2c(O)ccc3ccccc23)c1` [D10.072], the IC50 came out at 46.7 µM.
Regarding `O=C(Cn1c2ccccc2c(=O)c2ccccc21)N/N=C/c1cc(I)c(O)c([N+](=O)[O-])c1` [D10.073], the IC50 was 52.3 µM.
On to `CC(C)(C)CC(C)(C)c1ccc(OCC(=O)N/N=C/c2ccc(OC(=O)c3ccco3)c([N+](=O)[O-])c2)cc1` [D10.074], for which the IC50 was determined as 52.9 µM.
The same measure, in the same setting: the value for `CCN(CC)C(=O)C1CCCN(c2ccc([N+](=O)[O-])cc2/C=N/NC(=O)c2cccc([N+](=O)[O-])c2)C1` (stereo not shown) [D10.075] was 54 µM.
As for `O=C(N/N=C/C=C/c1ccccc1)c1cc(C2CC2)n[nH]1` [D10.076], the IC50 is 55 µM.
On the same count and under the same terms, the value for `Cc1ccc(Cn2cccc2/C=N/NC(=S)Nc2ccc(C)c(C)c2)cc1` [D10.077] was 55.2 µM.
Still for that read-out and setting: the value for `CCOc1cccc(/C=N/NC(=O)c2cc(-c3ccc(F)cc3)n[nH]2)c1O` [D10.078] was 55.3 µM; that for `COc1c(O)ccc(/C=N/NC(=O)COc2c(Br)cc(Br)cc2Br)c1[N+](=O)[O-]` [D10.079] was 55.4 µM; that for `C/C(=N\NC(=O)c1cc(C(C)(C)C)n[nH]1)c1ccc(Cl)cc1` [D10.081] was 55.7 µM.
Still for that read-out and setting: the value for `COc1cc(C(=O)Oc2c(Br)cc(Br)cc2/C=N/NC(=O)COc2ccc(C)cc2)cc(OC)c1OC` [D10.082] was 55.9 µM.
`CCOc1ccc(/C=N/NC(=O)c2cc(-c3c(OC)ccc4ccccc34)n[nH]2)cc1` [D10.083]: the IC50 turned out to be 56.3 µM.
On the same count and under the same terms, the value for `Cc1cccc(C)c1OCC(=O)N/N=C/c1cc(Br)cc(Br)c1OC(=O)c1ccccc1I` [D10.084] was 57 µM.
As to `Cc1ccc(/C=N/NC(=O)c2cccc(I)c2)o1` [D10.085], the IC50 worked out at 57.7 µM.
On to `COc1ccc(C(=O)N/N=C/c2cc(O)c(O)c(Br)c2Br)cc1` [D10.086], for which the IC50 worked out at 57.8 µM.
As to `COc1cc(/C=N/NC(=O)c2ccccc2OC(C)C)ccc1O` [D10.087], the IC50 is 58.7 µM.
On the same count and under the same terms, the value for `Cc1ccccc1SCC(=O)N/N=C/c1ccc(C)c([N+](=O)[O-])c1` [D10.088] was 58.8 µM.
Same read-out and setting: the value for `O=C(N/N=C/c1cc(Br)c(O)c(Br)c1O)/C(=C\c1ccc2c(c1)OCO2)NC(=O)c1ccccc1` [D10.089] was 60 µM; that for `O=C(N/N=C\c1ccc(OCc2ccccc2Cl)cc1)c1ccc2c(c1)OCO2` [D10.090] was 62.1 µM.
For the compound `N#Cc1ccc(/C=N/NC(=O)c2ccccc2[N+](=O)[O-])cc1` [D10.091], the IC50 came out at 62.2 µM.
Same read-out and setting: the result for `COc1cc(/C=N/NC(=O)CNC(=O)c2cccc(F)c2)ccc1OC(=O)c1ccccc1Cl` [D10.093] reads 63.5 µM; that for `O=C(COc1ccc2ccccc2c1)N/N=C/c1c(Br)cc(Br)c(O)c1Br` [D10.095], 69.6 µM; that for `N#Cc1ccc(/C=N/NC(=O)c2cc([N+](=O)[O-])ccc2O)cc1` [D10.098], 81.4 µM.
For the compound `CCOc1cc(/C=N/NC(=O)c2cc(-c3ccco3)n[nH]2)ccc1O` [D10.099], the IC50 worked out at 84.9 µM.
Still for that read-out and setting: the value for `COc1ccc(OCC(=O)N/N=C\C(C)=C/c2ccc(/C=C(C)\C=N/NC(=O)COc3ccc(OC)cc3Br)cc2)c(Br)c1` [D10.101] was 91.3 µM; that for `O=C(CNC(=O)C(c1ccccc1)c1ccccc1)N/N=C/c1ccc(OC(=O)c2cccc(F)c2)cc1` [D10.103] was 93.3 µM; that for `COc1ccc(OCC(=O)N/N=C/c2c(Br)cc(Br)c(O)c2Br)c(Br)c1` [D10.105] was 99.4 µM.
Take `COc1cccc(/C=N/NC(=O)c2cc(-c3cccc([N+](=O)[O-])c3)n[nH]2)c1O` [D10.108]: the IC50 worked out at 110 µM.
Take `COc1ccc(OCC(=O)N/N=C/c2c(Br)cc(Br)c(O)c2Br)cc1` [D10.109]: the IC50 turned out to be 113 µM.
For `O=C(Nc1cccc(/N=C/c2cc(I)cc(I)c2O)c1)c1ccco1` [D11.002], the IC50 turned out to be 9.2 µM.
In the case of `Cc1csc(/C(=N\OC(=O)c2ccc(Br)o2)C(N)=O)n1` [D11.003], the IC50 came out at 14 µM.
On the same count and under the same terms, the value for `C/C(=N/OC(=O)C(C)(C)C)c1cc2ccccc2oc1=O` [D11.004] was 14.1 µM; that for `CCCC(=O)O/N=C1/C(=O)N(c2ccccc2)c2ccccc21` [D11.006] was 15.2 µM.
The same measure, in the same setting: the value for `CCCC(=O)O/N=C(/C)c1cc2ccccc2oc1=O` [D11.007] was 18.9 µM; that for `Cc1[nH]c2ccccc2c1/C=N/OC(=O)C1CC1` [D11.008] was 30 µM.
